Experiments:
Male Hartley guinea pigs = assay: Effect on histamine-induced increases in microvascular permeability in skin in guinea pigs; assay type: in vivo; settings: Cavia porcellus; 3 mg/kg oral administration 1 hour before histamine; guinea pig skin
Procedure: Male Hartley guinea pigs weighing about 500 g were used. After the dorsal hair was shaved under ether anesthesia, 1 ml of a 2.5% pontamine sky blue solution was injected intravenously, and then 0.1 ml of histamine at 3 µg/ml was injected intradermally into 2 sites (left and right) in the back. Thirty minutes after the injection of histamine, animals were fainted by knocking in the head, decapitated and killed by bleeding, after which the skin of the back was removed. The long and short diameters (mm) of each blue spot were measured and multiplied; the mean product was taken as the vascular permeability index. Test compounds were suspended in a 5% gum arabic solution and orally administered in a volume of 0.2 ml/100 g body weight at 1 hour before histamine administration. Animals in the control group received the same volume of a 5% gum arabic solution. Equation 1 Inhibition (%) of histamine-induced increases in microvascular permeability in skin = 100 × (1-vascular permeability index in the presence of drug/vascular permeability index in control group) [formula]

guinea pig = assay: Effect on intranasal pressure and pituita (nasal) secretion after histamine aerosol, nasal administration; assay type: in vivo
Procedure: Animals were anesthetized with pentobarbital sodium (30 mg/kg, i.p.), and the compound of Reference Example B135 and solvent (0.1% sodium dihydrogenphosphate + 0.1% Tween 80) were administered into the both nasal cavities of guinea pig in 20 µL. The animals underwent the following test in about 0.5 hour.
The animals under anesthesia was held in the supine position. The neck was opened by median incision to expose the air tube. For maintenance of respiration, a polyethylene tube was inserted down into the air tube. Another polyethylene tube was inserted from the air tube incision into the rhinopharynx, and connected to a respirator via a silicon tube, through which the air was supplied into the nasal cavity at a volume of 4 mL/stroke and a frequency of 70 strokes/min. To prevent the air leak into the oral cavity, incisive canal was closed with Aron alfa A (trademark, Sankyo, Tokyo). The intranasal pressure was measured with a transducer connected to a side branch of the tube inserted into the nasal cavity. Histamine 1000 µg/mL solution was aerosolized using an ultrasonic nebulizer provided between the respirator and the tube in the nasal cavity, and the air was supplied into the nasal cavity for 3 minutes. After the histamine air supply, the intranasal pressure was depicted on an oscillograph for 15 minutes and the area under the curve was determined.
The pituita flowed out from the nasal cavity or pooled in the nasal cavity during the 15 minutes after histamine air supply was wiped with a cotton swab, which was weighed on an electronic weighing machine.
Where necessary, aerosolized physiological saline as a negative control was supplied into the nasal cavity, and the intranasal pressure and nasal secretion were measured.

histamine H1 receptor = molecular target: T1, histamine H1 receptor (Cavia porcellus, UniProt P31389); assay: Penetrability into the brain: ex vivo binding test with tritium-labeled pyrilamine in brain and lung membrane fractions; set-up: species or system guinea pigs
T1 construct: The cerebral cortex and lung tissues were removed and homogenized in phosphate buffer solution; from tissue; host or cells: cerebral cortex and lung crude membrane fractions of male Hartley guinea pigs
Procedure: The compound of Reference Example B135 was orally administered (10 or 100 mg/kg) to male Hartley guinea pigs and, one hour later, the guinea pigs were slaughtered by decapitation. The cerebral cortex and lung tissues were removed and homogenized in phosphate buffer solution, followed by centrifugation at 4°C and 1000×g for 10 minutes. The supernatant was further centrifuged at 5000×g for 10 minutes to give crude membrane fractions. The membrane fractions were suspended in a buffer and, after adjusting the protein concentration to 1.0 mg/mL, subjected to binding test with tritium-labeled pyrilamine (2 nM). The inhibitory action on ex vivo binding test measured specific binding of pyrilamine in the brain and lung membrane fractions was calculated and used as an index of selectivity to peripheral histamine H1 receptor in the body upon oral administration of the agent.

[1] = 0.1% solution, nasal, 20 µL, histamine 1000 µg/mL aerosol
[2] = 1.0% solution, nasal, 20 µL, histamine 1000 µg/mL aerosol

T1 sequence (P31389 whole entry): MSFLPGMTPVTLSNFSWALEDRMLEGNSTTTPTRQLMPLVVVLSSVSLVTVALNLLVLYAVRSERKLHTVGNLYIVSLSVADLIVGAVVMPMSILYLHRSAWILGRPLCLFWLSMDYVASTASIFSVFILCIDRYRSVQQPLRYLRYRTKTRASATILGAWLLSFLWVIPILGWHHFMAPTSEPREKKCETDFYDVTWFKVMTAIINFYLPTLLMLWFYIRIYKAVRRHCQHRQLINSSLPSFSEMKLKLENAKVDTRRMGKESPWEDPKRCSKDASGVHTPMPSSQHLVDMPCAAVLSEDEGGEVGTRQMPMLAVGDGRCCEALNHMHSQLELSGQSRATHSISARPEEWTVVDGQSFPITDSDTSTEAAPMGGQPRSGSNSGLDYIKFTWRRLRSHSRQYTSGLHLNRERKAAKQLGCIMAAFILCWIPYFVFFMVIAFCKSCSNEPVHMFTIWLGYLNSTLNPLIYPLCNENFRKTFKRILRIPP

In the case of `CC(C)(C(=O)O)c1cn2nc(NCCCN3CCC(OC(c4ccccc4)c4ccccc4)CC3)ccc2n1.O.O` [Reference Example B135, 2-[6-[3-[4-(diphenylmethoxy)piperidino]-propylamino]imidazo[1,2-b]pyridazin-2-yl]-2-methylpropionic acid dihydrate], the inhibition in vivo at 3 mg/kg (Male Hartley guinea pigs) is reported as 91%, the “percent inhibition of increase in intranasal pressure by nasal administration of 0.1% solution” value (guinea pig; [1]) is reported as 70% and the “percent inhibition of nasal secretion by nasal administration of 0.1% solution” value (guinea pig; [1]) is reported as 72%. For the same compound, the “percent inhibition of increase in intranasal pressure by nasal administration of 1.0% solution” value (guinea pig; [2]) was 62%, the “percent inhibition of nasal secretion by nasal administration of 1.0% solution” value (guinea pig; [2]) was 78% and the “increase in the intranasal pressure and nasal secretion” value (guinea pig; conclusion from Tables 3 and 4) was “reduced increase in the intranasal pressure and nasal secretion”. The “penetrability into the brain” value (histamine H1 receptor; conclusion from Tables 5 and 6) was “poor penetrability into the brain”, the “percent inhibition of specific binding of membrane fraction pyrilamine in brain” value (histamine H1 receptor; oral administration of 10 mg/kg, one hour later, brain (cerebral cortex)) was -2.9% and the “percent inhibition of specific binding of pyrilamine in lung membrane fraction” value (histamine H1 receptor; oral administration of 10 mg/kg, one hour later) was 95%. The “percent inhibition of specific binding of pyrilamine in brain membrane fraction” value (histamine H1 receptor; oral administration of 100 mg/kg, one hour later, brain (cerebral cortex)) was 44% and the “percent inhibition of specific binding of pyrilamine in lung membrane fraction” value (histamine H1 receptor; oral administration of 100 mg/kg, one hour later) was 95%.

Reference: EP1243271A1, “NASAL DROPS CONTAINING FUSED PYRIDAZINE DERIVATIVES” (Takeda Chemical Industries, Ltd., priority 1999, dated 2001)
